Article PMC8149590, “Biochemical Characterization of a Novel Bacterial Laccase and Improvement of Its Efficiency by Directed Evolution on Dye Degradation” (Frontiers in Microbiology, 2021)

Test system: T1, rlac1338
T1 construct: gene lac1338; 1,338 bp gene (about 445 residues), codon-optimised, in pET-32a(+), E. coli BL21(DE3); His-tag fusion (18 kD vector tag), ~68 kD by SDS-PAGE
Assay: initial rates by OD405, Lineweaver-Burk
Type: biochemical, uncultured bacterium
Conditions: ± sign lost in table text
From the text: initial rates by OD405, Lineweaver-Burk on rlac1338

[1] = mutant lac2-9, optimal pH 6.5 and 60°C, printed base change T698A falls in codon 233, not 232

Row | SMILES | Km [1] | Km (optimal pH 6.0 and 55°C)
1 | Oc1cccc2ccccc12 [1-naphthol] | 6040 µM | 5600 µM
2 | COc1cccc(OC)c1O [2,6-DMP] | 560 ± 3.7 µM | 654 ± 2.1 µM
3 | CCn1c(=NN=c2sc3cc(S(=O)(=O)O)ccc3n2CC)sc2cc(S(=O)(=O)O)ccc21 [ABTS, 2,2-azide-bis (3-ethylbenzothiazole-6-sulfonic acid)] | 76 ± 1.8 µM | 210 ± 3.3 µM
4 | Oc1ccccc1O [Catecho] | 570 ± 2.9 µM | 507 ± 2.5 µM
5 | COc1ccccc1O [Guaiacol] | 4300 µM | 4900 µM
